What was measured:
D(2) dopamine receptor [1] = target: D(2) dopamine receptor (Rattus norvegicus, UniProt P61169); test: biochemical
Description: Displacement of [3H]spiperone from rat dopamine D2L receptor expressed in HEK293 cells

Rattus norvegicus [2] = species: Rattus norvegicus; test: Selectivity for rat dopamine D3 receptor over rat dopamine D2L receptor
D(3) dopamine receptor [3] = target: D(3) dopamine receptor (Rattus norvegicus, UniProt P19020); test: biochemical
Description: Displacement of [3H]spiperone from rat dopamine D3 receptor expressed in HEK293 cells

D(2) dopamine receptor [4] = target: T1, D(2) dopamine receptor (Homo sapiens, UniProt P14416); test: Agonist activity at human dopamine D2L receptor expressed in CHO cells assessed as stimulation of [35S]GTPgammaS binding relative to dopamine; format: functional, cell-based
D(3) dopamine receptor [5] = target: D(3) dopamine receptor (Homo sapiens, UniProt P35462)
Description: Agonist activity at human dopamine D3 receptor expressed in mouse ATt-20 cells assessed as stimulation of [35S]GTPgammaS binding

Rattus norvegicus [6] = test: Induction of rotational activity in 6-hydroxydopamine unilaterally lesioned rat assessed as number of contralateral rotation at 5 umol/kg, sc after […]; format: functional
Rattus norvegicus [7] = test: Induction of rotational activity in 6-hydroxydopamine unilaterally lesioned rat assessed as number of contralateral rotation at 2.5 umol/kg, sc after 8 hrs; format: functional
D(2) dopamine receptor [8] = target: T1, D(2) dopamine receptor
Rattus norvegicus [9] = test: Induction of rotational activity in subcutaneously dosed 6-hydroxydopamine unilaterally lesioned rat assessed as contralateral rotation; format: functional, organism-based

Sequence of D(2) dopamine receptor (Rattus norvegicus, UniProt P61169) (P61169 whole entry): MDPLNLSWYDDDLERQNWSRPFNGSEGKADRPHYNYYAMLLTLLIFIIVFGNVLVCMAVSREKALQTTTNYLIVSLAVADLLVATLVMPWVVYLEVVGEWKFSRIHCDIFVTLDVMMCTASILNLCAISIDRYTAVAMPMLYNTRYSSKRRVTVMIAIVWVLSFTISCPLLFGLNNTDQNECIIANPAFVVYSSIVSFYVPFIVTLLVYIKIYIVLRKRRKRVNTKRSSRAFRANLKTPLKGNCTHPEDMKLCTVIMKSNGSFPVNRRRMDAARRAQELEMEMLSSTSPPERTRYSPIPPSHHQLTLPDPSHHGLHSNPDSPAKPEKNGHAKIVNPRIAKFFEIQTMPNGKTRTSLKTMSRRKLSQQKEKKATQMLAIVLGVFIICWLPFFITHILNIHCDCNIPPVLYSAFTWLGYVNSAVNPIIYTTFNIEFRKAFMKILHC
T1 sequence (P14416 whole entry): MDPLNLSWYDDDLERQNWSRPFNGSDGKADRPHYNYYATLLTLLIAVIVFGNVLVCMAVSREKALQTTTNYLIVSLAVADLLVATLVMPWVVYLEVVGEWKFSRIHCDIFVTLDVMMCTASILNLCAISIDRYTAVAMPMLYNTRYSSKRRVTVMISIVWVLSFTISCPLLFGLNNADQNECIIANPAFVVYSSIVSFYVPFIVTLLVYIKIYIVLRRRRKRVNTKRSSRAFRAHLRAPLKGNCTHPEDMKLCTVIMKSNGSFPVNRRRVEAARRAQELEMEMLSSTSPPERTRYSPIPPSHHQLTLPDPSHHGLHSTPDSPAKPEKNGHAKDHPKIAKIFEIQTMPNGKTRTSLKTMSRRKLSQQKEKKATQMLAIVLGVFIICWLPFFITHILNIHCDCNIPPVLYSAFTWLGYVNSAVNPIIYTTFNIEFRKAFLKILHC
Sequence of D(3) dopamine receptor (Rattus norvegicus, UniProt P19020) (P19020 whole entry): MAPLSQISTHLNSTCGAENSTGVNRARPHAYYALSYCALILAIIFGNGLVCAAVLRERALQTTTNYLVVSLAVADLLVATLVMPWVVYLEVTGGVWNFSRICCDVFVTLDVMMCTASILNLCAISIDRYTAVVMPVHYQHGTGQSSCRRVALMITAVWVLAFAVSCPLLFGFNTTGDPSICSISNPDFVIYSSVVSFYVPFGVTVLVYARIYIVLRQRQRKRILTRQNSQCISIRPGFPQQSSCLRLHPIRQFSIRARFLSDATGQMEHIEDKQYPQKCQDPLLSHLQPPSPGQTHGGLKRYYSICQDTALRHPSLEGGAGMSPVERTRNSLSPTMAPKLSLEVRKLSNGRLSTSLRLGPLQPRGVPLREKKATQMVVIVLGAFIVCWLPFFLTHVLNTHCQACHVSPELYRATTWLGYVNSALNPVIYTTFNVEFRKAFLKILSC
Sequence of D(3) dopamine receptor (Homo sapiens, UniProt P35462) (P35462 whole entry): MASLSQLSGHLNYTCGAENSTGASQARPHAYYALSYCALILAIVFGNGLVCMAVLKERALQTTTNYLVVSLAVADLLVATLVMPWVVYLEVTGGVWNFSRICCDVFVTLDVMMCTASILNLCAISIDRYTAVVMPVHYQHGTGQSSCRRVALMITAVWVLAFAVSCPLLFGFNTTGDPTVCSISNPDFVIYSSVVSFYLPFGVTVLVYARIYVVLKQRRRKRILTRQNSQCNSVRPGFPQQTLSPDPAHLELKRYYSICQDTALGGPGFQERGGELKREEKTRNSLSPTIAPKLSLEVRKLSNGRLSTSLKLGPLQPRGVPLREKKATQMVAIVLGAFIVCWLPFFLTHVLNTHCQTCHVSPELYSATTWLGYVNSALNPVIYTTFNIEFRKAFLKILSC

| SMILES | Ki (D(2) dopamine receptor [1]) | Ratio Ki (Rattus norvegicus [2]) | Ki (D(3) dopamine receptor [3]) | also measured |
| --- | --- | --- | --- | --- |
| CCCN(CCN1CCN(c2ccccc2)CC1)C1CCc2ccc(O)cc2C1 (stereo not drawn) | 142 nM | 91 | 1.56 nM |  |
| CCCN(CCN1CCN(c2ccccc2)CC1)C1CCc2nnsc2C1 (stereo not drawn) | 746 nM | 4.66 | 160 nM |  |
| CCCN(CCN1CCN(c2ccccc2)CC1)C1CCc2nn[se]c2C1 (stereo not drawn) | 189 nM | 4.64 | 40.7 nM |  |
| CCCN(CCN1CCN(c2ccccc2)CC1)C1CCc2c[nH]nc2C1 (stereo not drawn) | 2570 nM | 13.7 | 188 nM |  |
| CCCN(CCCCN1CCN(c2ccccc2)CC1)C1CCc2nc(N)sc2C1 (stereo not drawn) | 769 nM | 62 | 12.4 nM |  |
| C#CCN(CCN1CCN(c2cccc(Cl)c2Cl)CC1)C1CCc2nc(N)sc2C1 (stereo not drawn) | 34.9 nM | 4.92 | 7.1 nM |  |
| CCCN(CCN1CCN(c2ccccc2)CC1)C1CCc2[nH]ncc2C1 (stereo not drawn) | 1830 nM | 39.3 | 46.7 nM |  |
| CCCN(CCN1CCN(c2ccccc2)CC1)C1CCc2oncc2C1 (stereo not drawn) | 915 nM | 5.9 | 155 nM |  |
| CCCN(CCN1CCN(c2ccccc2)CC1)C1CCc2nocc2C1 (stereo not drawn) | 813 nM | 3.2 | 254 nM |  |
| C#CCN(CCN1CCN(c2ccccc2OC)CC1)C1CCc2nc(N)sc2C1 (stereo not drawn) | 81.2 nM | 2.33 | 34.8 nM |  |
| CCCN(CCC)C1CCc2ccc(O)cc2C1 (stereo not drawn) |  |  |  | Emax (D(2) dopamine receptor [4]): 61.4% |
| CCCN(CCN1CCN(c2ccccc2)CC1)C1CCc2nc(N)sc2C1 (single isomer, unassigned; (+)) [listing 1 of 2 here] | 1980 nM |  | 44 nM |  |
| CCCN(CCN1CCN(c2ccccc2OC)CC1)C1CCc2nc(N)sc2C1 (single isomer, unassigned; (+)) [listing 1 of 2 here] | 243 nM |  | 101 nM |  |
| CCCN(CCN1CCN(c2ccccc2)CC1)C1CCc2nc(N)sc2C1 (single isomer, unassigned; (+)) [listing 2 of 2 here] |  | 45 |  |  |
| CCCN(CCN1CCN(c2ccccc2OC)CC1)C1CCc2nc(N)sc2C1 (single isomer, unassigned; (+)) [listing 2 of 2 here] |  | 2.4 |  |  |
| CCCN(CCN1CCN(c2ccc(-c3ccccc3)cc2)CC1)C1CCc2nc(N)sc2C1 (single isomer, unassigned; (-)) | 264 nM | 253 | 0.92 nM | EC50 (D(3) dopamine receptor [5]): 0.085 nM; Activity (Rattus norvegicus [6]): 3866; Activity (Rattus norvegicus [7]): 2092; EC50 (D(2) dopamine receptor [8]): 19.9 nM; Emax (D(2) dopamine receptor [4]): 119%; Activity (Rattus norvegicus [9]): Dose-dependent effect |
| CCCN(CCN1CCN(c2ccccc2OC)CC1)C1CCc2nc(N)sc2C1 (single isomer, unassigned; (-)) [listing 1 of 2 here] | 288 nM |  | 7.01 nM |  |
| CCCN(CCN1CCN(c2ccccc2OC)CC1)C1CCc2nc(N)sc2C1 (single isomer, unassigned; (-)) [listing 2 of 2 here] |  | 41.1 |  |  |
| CCCN(CCN1CCN(c2ccccc2)CC1)C1CCc2nc(N)sc2C1 (stereo in doubt; 6a) [listing 1 of 2 here] | 639 nM |  | 5.96 nM |  |
| CCCN(CCN1CCN(c2ccccc2)CC1)C1CCc2nc(N)sc2C1 (stereo in doubt; 6a) [listing 2 of 2 here] |  | 107 |  |  |
| CCCN(CCN1CCN(c2ccccc2OC)CC1)C1CCc2nc(N)sc2C1 (stereo in doubt; 6b) [listing 1 of 2 here] | 166 nM |  | 5.09 nM |  |
| CCCN(CCN1CCN(c2ccccc2OC)CC1)C1CCc2nc(N)sc2C1 (stereo in doubt; 6b) [listing 2 of 2 here] |  | 32.6 |  |  |
| CCCN(CCN1CCN(c2cccc(Cl)c2Cl)CC1)C1CCc2nc(N)sc2C1 (stereo in doubt; 6c) [listing 1 of 2 here] | 68.4 nM |  | 1.82 nM |  |
| CCCN(CCN1CCN(c2cccc(Cl)c2Cl)CC1)C1CCc2nc(N)sc2C1 (stereo in doubt; 6c) [listing 2 of 2 here] |  | 37.6 |  |  |
| CCCN(CCN1CCN(c2cccc(Cl)c2Cl)CC1)C1CCc2nc(N)sc2C1 (stereo in doubt; (+)-33) [listing 1 of 2 here] | 44.2 nM |  | 12 nM |  |
| CCCN(CCN1CCN(c2cccc(Cl)c2Cl)CC1)C1CCc2nc(N)sc2C1 (stereo in doubt; (+)-33) [listing 2 of 2 here] |  | 3.68 |  |  |
| CCCN(CCN1CCN(c2ccccc2)CC1)C1CCc2nc(N)sc2C1 (stereo in doubt; (-)-31) [listing 1 of 2 here] | 243 nM |  | 4.15 nM |  |
| CCCN(CCN1CCN(c2ccccc2)CC1)C1CCc2nc(N)sc2C1 (stereo in doubt; (-)-31) [listing 2 of 2 here] |  | 58.6 |  |  |
| CCCN(CCN1CCN(c2cccc(Cl)c2Cl)CC1)C1CCc2nc(N)sc2C1 (stereo in doubt; (-)-33) [listing 1 of 2 here] | 56.8 nM |  | 1.8 nM | EC50 (D(3) dopamine receptor [5]): 0.06 nM; Activity (Rattus norvegicus [6]): 2766; Activity (Rattus norvegicus [7]): 2281; EC50 (D(2) dopamine receptor [8]): 13.4 nM |
| CCCN(CCN1CCN(c2cccc(Cl)c2Cl)CC1)C1CCc2nc(N)sc2C1 (stereo in doubt; (-)-33) [listing 2 of 2 here] |  | 31.6 |  | Emax (D(2) dopamine receptor [4]): 78.8%; Activity (Rattus norvegicus [9]): Dose-dependent effect |

— ChEMBL document CHEMBL1150260 (J Med Chem, 2008)
